Reference: PMC7737769, “Pharmacological inhibition of syntenin PDZ2 domain impairs breast cancer cell activities and exosome loading with syndecan and EpCAM cargo” (Journal of Extracellular Vesicles, 2020)
Where “and” joins values, the source holds several entries; their conditions need not be identical. Equal entries are not always repeated. Entries after “also recorded” stand apart in the source; their conditions may differ. Where two headings read alike, the source gives them in different places.

Tests used:
MCF‐7 cells = test: Cancer cell viability (Annexin V/7-AAD flow cytometry), MCF-7; format: cell-based; details: MCF-7, concentrations up to 100 µM, 48 h
Procedure: The effects of the compounds C58 and SyntOFF were tested both on MCF‐7 and MCF‐7 SyntKO cells. Briefly, the cells were treated with increasing concentrations of the compounds for 48 h and early/late apoptosis was measured by using the FITC Annexin V apoptosis detection kit with 7‐AAD (Biolegend, San Diego, CA, USA) according to the manufacturer. Annexin V positive but 7‐AAD negative (early apoptotic cells) and Annexin V positive and 7‐AAD positive (late stage apoptosis) was determined by using FACS LSRII flow cytometer (BD Biosciences) and data were analysed with Flowjo software (Tree Star).

[1] = target: T1, syntenin‐SDC2 complex (GST-SyntFL / SDC2 peptide) (Homo sapiens, UniProt O00560); test: HTRF assay, syntenin-SDC2 interaction; format: biochemical; details: for IC50: HTRF dose-response, read-out: IC50 for syntenin‐SDC2 complexes; for inhibition at 400 µM: HTRF
T1 construct: residues 1–298 or syntenin full‐length (FL) for HTRF assays; made in house; host or cells: E. coli ER2566
T1 sequence (O00560 1-298): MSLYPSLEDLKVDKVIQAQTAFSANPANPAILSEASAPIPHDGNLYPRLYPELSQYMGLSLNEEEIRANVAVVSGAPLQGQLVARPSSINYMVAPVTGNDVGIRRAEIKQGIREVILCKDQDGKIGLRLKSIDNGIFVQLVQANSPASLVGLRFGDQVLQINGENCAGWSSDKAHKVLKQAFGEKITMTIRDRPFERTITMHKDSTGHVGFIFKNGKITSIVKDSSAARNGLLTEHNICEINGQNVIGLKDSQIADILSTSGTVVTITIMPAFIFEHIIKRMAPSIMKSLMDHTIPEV

Erbin‐P0071 complex = system: T2, Erbin‐P0071 complex; test: HTRF assay, Erbin-P0071 interaction; format: biochemical, human
T2 construct: human Erbin PDZ domain; made in house; host or cells: E. coli BL21 (DE3)
Procedure: (§1) HTRF assays were performed in white 96Well Small VolumeHiBase Polystyrene Microplates (Greiner) with a total working volume of […], as described previously (Milhas et al., 2016). Briefly, compounds were firstly dispensed into the wells at 400 µM for the primary screen or with serial DMSO dilutions for IC50 measurement assays. Primary screening assays have been performed in monoplicate while IC50 measurements were performed in triplicates. All HTRF reagents were purchased from CisBio Bioassays and reconstituted according to the supplier protocols. The plates were spun for 3 min at 500 × g and then incubated at 4°C for 16 h. The HTRF signals were recorded on a POLAR star Omega plate reader (BMG Labtech) with an excitation filter at 337 nm and fluorescence wavelength measurement at 620 and 665 nm, an integration delay of 60 µs and an integration time of 400 µs. Results were analysed with a two‐wavelength signal ratio: [intensity (665 nm)/intensity (620 nm)] × 10^4. Percentage of inhibition was calculated using the following equation: % inhibition = [(compound signal)–(min signal)]/[(max signal)–(min signal)] × 100, where ‘max signal’ is the signal ratio with the compound vehicle alone (DMSO) and ‘min signal’ the signal ratio without protein B. For IC50 measurements, values were normalized and fitted with Prism (GraphPad software) using the following equation: Y = 100/(1+((X/ IC50)ˆHill slope)).
(§2) The search strategy for PDZ2 syntenin inhibitors was based on the PDZ targeted library developed from Enamine compound collection. The PDZ targeted library was developed to cover virtually all PDZ domains. Consequently, to create the syntenin PDZ2 focused library we used two independent paths: docking of the PDZ targeted library against structures of syntenin PDZ2 available in Protein Data Bank and a random selection from the PDZ targeted library. The docking has produced 21 virtual hits, which were added to 118 randomly selected compounds (10% of the pan PDZ library). The resultant set of 139 compounds, syntenin PDZ library was subjected to experimental validation. The primary screen was performed at 400µM using a previously validated Homogeneous Time Resolved Fluorescence (HTRF) assay (Milhas et al., 2016). HTRF is based on Fluorescence Resonance Energy Transfer (FRET) between two fluorescent reagents. In the present case, Anti‐GST‐Terbium antibody and streptavidin‐bound Dynamic2 were used as donor and acceptor respectively. Interactions between GST PDZ‐fusion proteins and biotinylated peptides containing PDZ binding motifs were challenged with the potential inhibitors. In parallel, control experiments were performed with a biotinylated‐GST to verify that compounds were not interfering with the FRET signal in a non‐specific manner. To identify inhibitors of syntenin PDZ interactions, we tested for the effect of the 139 compounds on syntenin‐SDC2 and syntenin‐Frizzled7 complexes (Figure 1a; Table S1). When the HTRF signal dropped below 0.9, inhibition was considered as effective. […] Noteworthy, these compounds had no effect on other PDZ complexes like GRASP55‐JAM‐B or GRASP55‐JAM‐C and Erbin‐Erbb2 or Erbin‐P0071 (Figure 1c).

GRASP55‐JAM‐B complex = system: T3, GRASP55‐JAM‐B complex; test: HTRF assay, GRASP55-JAM-B interaction; format: biochemical, human
T3 construct: Human GRASP55 tandem PDZ; made in house; host or cells: E. coli BL21 (DE3)
Procedure: as §1, §2

| fold improvement of the affinity as compared to C58 ([1]; HTRF IC50) | inhibition at 400 µM ([1]; read-out: inhibition of the syntenin‐SDC2 interaction) | SMILES | toxicity (cell viability) (MCF‐7 cells) | ligand efficiency [1] | GST SyntFL Syndecan 2 (signal ratio) ([1]; 400µM compound, Figure 1c) | IC50 [1] | inhibition of syntenin PDZ interactions ([1]; HTRF primary screen, 400µM, syntenin-SDC2 and syntenin-Frizzled7) | inhibition at 400 µM ([1]; syntenin-SDC2 and syntenin-Frizzled 7 complexes, read-out: extent of inhibition of Syntenin‐PDZ complexes) | GST-Erbin P0071 (signal ratio) (Erbin‐P0071 complex; 400µM compound, Figure 1c) | GST-GRASP JAM-B (signal ratio) (GRASP55‐JAM‐B complex; 400µM compound, Figure 1c) | effect on Erbin‐P0071 complex (Erbin‐P0071 complex; HTRF dose-response, Figure S2a) | effect on GRASP55‐JAM‐B complex (GRASP55‐JAM‐B complex; HTRF dose-response, Figure S2b) |
| --- | --- | --- | --- | --- | --- | --- | --- | --- | --- | --- | --- | --- |
|  |  | CC(C)[C@H](NC(=O)CSc1ccc(Cl)cc1)C(=O)O [Compound C58] | not toxic; also recorded: non‐toxic | 0.24 kcal/mol/atom | 0.36 | 350 µM and 349 µM | inhibit | 60% | 1 | 1.1 |  |  |
| > 10 fold and 10 fold | 96% | CC(C)[C@H](NC(=O)CCSc1ccc(Cl)cc1)C(=O)O [SyntOFF, (S)‐2‐(3‐(4‐chlorophenylthio)propanamido)‐3‐methylbutanoic acid] | non‐toxic | 0.30 kcal/mol/atom |  | 37 µM |  |  |  |  | not affecting | not affecting |
